Laboratory results from patent US11793782B2, “Therapeutic agents for neurodegenerative diseases” (priority 2017, dated 2023).

Key:
[1] = system: Mucopolysaccharidosis Type IIIB (MPS IIIB) patient fibroblasts; test: Lysosomal volume via LysoTracker, MPS IIIB fibroblasts; assay type: cell-based, human; conditions: 1 mM, 6 days
[2] = system: Sandhoff disease patient fibroblasts; test: Glycosphingolipid (GSL) levels by HPLC, Sandhoff fibroblasts; assay type: cell-based, human; conditions: 1 mM for 6 days
[3] = system: ALS patients; test: Case studies, amyotrophic lateral sclerosis (ALS) patients; assay type: in vivo, human
Source text: The results were documented by video.

[4] = system: microtubule-associated protein 1A/1B-light chain 3-phosphatidylethanolamine conjugate (LC3-II); test: LC3-II levels in NPC1−/− mice; assay type: in vivo, mouse; conditions: 0.1 g/kg body weight daily from 3 weeks of age, sacrificed at 8 weeks
Experimental: The Niemann-Pick Disease Type C (NPC) mouse model shares a number of pathological features with Alzheimer's disease (AD) as described herein. […] Mice were sacrificed at 8 weeks of age. Levels of amyloid precursor protein C-terminal fragments (APP-CTFs) were evaluated relative to total amyloid precursor protein (APP) levels in the cerebellum for wild type, untreated wild type NPC1^−/− mice, and AL-treated wild type NPC1^−/− mice. Levels of microtubule-associated protein 1A/1B-light chain 3-phosphatidylethanolamine conjugate (LC3-II) were also evaluated relative to levels of tubulin loading control for wild type, untreated wild type NPC1^−/− mice, and AL-treated wild type NPC1^−/− mice.

[5] = system: restless leg syndrome patients; test: Case studies, restless legs syndrome (IRLS score); assay type: in vivo, human; set-up: key to IRLS: IRLS 0 (no symptoms) to 40; >30 very severe, ≤10 mild
Source text: A widely reported rating scale known as the International Restless Leg Syndrome Study Group Rating Scale (“IRLS”) was developed by the International Restless Legs Syndrome Study Group (“IRLSSG”) (http://www.irlssg.org/) (Walters et al., Validation of the International Restless Legs Syndrome Study Group rating scale for restless legs syndrome. Sleep medicine. 2003 Apr. 1; 4(2):121-32). The IRLS is a 10-item scale with scores ranging from 0 (no symptoms) to 40. Scores >30 are considered very severe, severe (Score 21-30), moderate (scores 11-20) and ≤10, mild. Use of the scale is common for clinical assessment, research and therapeutic trials with RLS. In one embodiment, treatment with leucine, acetyl-leucine, or a pharmaceutically acceptable salt thereof as described herein decreases the subject's International Restless Leg Syndrome Study Group Rating Scale (“IRLS”) compared to a baseline. In one embodiment, the IRLS is reduced compared to baseline by at least 10%, at least 20%, at least 30%, at least 40%, or at least 50%. In one embodiment, the IRLS is reduced by at least 60%, at least 70%, at least 80%, at least 90%, or 100%.
The patient in this case study was a person showing proximal weakness of the so lower limb. […] Upon consultation, they reported no sensory symptoms but complained of a restless leg syndrome at night and during resting periods of the day, occurring over the course of the last two years. Pre-treatment with dopamine agonist were without symptom relief. Serum creatine kinase activity was only mildly elevated at up to 400 IU/L. The patient was evaluated using the RLS diagnostic index (RLS-DI) (see Walters et al., Sleep Med 2003; 4(2):121-132;). The patient's International Restless Legs Syndrome Rating Scale score (IRLS) was 36, and thus a severe RLS was diagnosed. […] Re-introduction of the treatment re-declined the score to 8 after 2 weeks. Continuation of treatment over more than 22 weeks stabilized the IRLS score at 8.
The patient in this case study was a person showing proximal weakness of the lower limb. […] Upon consultation, they reported no sensory symptoms but complained of a restless leg syndrome at night and during resting periods of the day, occurring over the course of the last eight years. […] Serum creatine kinase activity was mildly elevated at 300 IU/L. Iron measurements and all additional lab investigations were normal. The patient was evaluated using the RLS-DI and the patient's IRLS was 32, and thus a moderate to severe RLS was diagnosed. […] Continuation of treatment over more than 28 weeks stabilized the IRLS score at 8.
The patient in this case study was a person showing mild proximal weakness of the upper and lower limbs slowly progressive. The patient had been diagnosed (genetically confirmed) with McArdle myopathy about 16 years ago. Upon consultation, they reported no sensory symptoms but complained about a severe fatigue and reduced stamina. The patient further reported a restless leg syndrome at night and during resting periods of the day, occurring over the course of the last 12 years. […] Serum creatine kinase activity was mildly elevated at 200 IU/L; however, the patient had 5 episodes of rhabdomyolysis during the past 20 years. Repeated iron measurements and all additional lab investigations were normal. The patient was evaluated using the RLS-DI and the patient's IRLS was 34, and thus a severe RLS was diagnosed. […] Continuation of treatment over more than 30 weeks stabilized the IRLS score at 10. In addition, the patient's fatigue declined (Fatigue Severit Scale: 9 (minimum) to 63 (maximum)) from 53 to 28.

[6] = system: patients with cerebellar ataxia; conditions: cited from earlier work
[7] = system: Hexb−/− mouse (Sandhoff disease model); test: Lifespan of Sandhoff mouse; assay type: in vivo
Experimental: This study made use of a mouse model of Sandhoff disease, the Hexb^−/− mouse, as descrbed in Jeyakumar et al. (Jeyakumar, M. et al. (1999) Proc. Natl. Acad. Sci. USA 96: 6388-6393).
In FIG. 7A, acetyl-leucine-treated mice were treated with 0.1 g/kg acetyl-leucine from 3 weeks of age. The asterisks (*) indicates a p-value of <0.05 vs untreated Sandhoff mice. Data is average of n=6 mice per group. Without treatment, the median survival time of Sandhoff mice was 112 days. Treatment with acetyl-leucine (0.1 g/kg body weight since 3 weeks of age) increased the median lifespan to 120 days.

[8] = system: Mucolipidosis Type II (MLII) patient fibroblasts; test: Lysosomal volume via LysoTracker, MLII fibroblasts; assay type: cell-based, human; conditions: 1 mM, 6 days
[9] = ALS Patient 1, after a further 20 days

With CC(=O)NC(CC(C)C)C(=O)O (racemic) [acetyl-DL-leucine] the “LysoTracker fluorescence relative to untreated disease fibroblasts” value [1] was “statistically significant reduction in LysoTracker fluorescence”, the GSL levels [2] was “trend towards decreased GSL levels” and the Overall symptoms ([3]; ALS Patient 1) was “improvement in symptoms”. For the same compound, the “Speech (patient report)” value ([3]; ALS Patient 1, 5 gram per day, after 15 days of treatment) was “significant improvement of speech”, the “Speech after stopping treatment” value ([3]; ALS Patient 1, about 7 days plus 1-2 additional weeks off treatment) was “deterioration of speech” and the “Paresis of the right foot-dorsiflexors and foot drop” value [3, 9] was “improved dramatically and were clinically hardly detectable”. For the same compound, the “Sleep (patient report)” value [3, 9] was “improvement in sleep”, the “Speech (patient report)” value [3, 9] was “further improvement of speech” and the “Symptomatology after resuming treatment” value ([3]; ALS Patient 1, second resumption) was “improved symptomatology, in particular speech”. For the same compound, the Clinical observation ([3]; ALS Patient 2, 5 g per day, after approximately 2 months) was “progredient deterioration of the motor function of the left hand, but a discrete improvement of walking”, the Swallowing functions ([3]; ALS Patient 2, after approximately 2 months) was “remained stable” and the Symptomatology ([3]; ALS Patient 3, 5 g per day, after one month) was “did not report improvement of symptomatology”. The Clinical observation ([3]; ALS Patient 4, 5 g per day, after about one month) was “subjective improvement of dysphagia and less hypersalivation”, the Symptomatology after suspension ([3]; ALS Patient 4, 10 days after therapy was suspended) was “worsening of symptomatology” and the ALS-FRS score ([3]; ALS Patient 4, about 8 weeks after resuming continuous treatment, before treatment 44/48) was 43/48. The “LC3-II levels relative to tubulin loading control” value [4] was “lowering of LC3-II”, the IRLS ([5]; RLS Patient 1 (myotonic dystrophy type 2), 5 g per day, within 14 days, before 36) was 26 and the IRLS ([5]; RLS Patient 1, 2 weeks after re-introduction of the treatment) was 8. For the same compound, the IRLS ([5]; RLS Patient 1, after another 5 weeks) was 9, the IRLS ([5]; RLS Patient 1, continuation of treatment over more than 22 weeks) was 8 and the IRLS ([5]; RLS Patient 1, interruption of 4 weeks after week 12 of the treatment) was 28. The IRLS ([5]; RLS Patient 2 (myotonic dystrophy type 2), 5 g per day, within 14 days, before 32) was 22, the IRLS ([5]; RLS Patient 2, after another 5 weeks) was 7 and the IRLS ([5]; RLS Patient 2, continuation of treatment over more than 28 weeks) was 8. The IRLS ([5]; RLS Patient 3 (McArdle myopathy), 5 g per day, within 21 days, before 34) was 20, the IRLS ([5]; RLS Patient 3, after another 10 weeks) was 10 and the IRLS ([5]; RLS Patient 3, continuation of treatment over more than 30 weeks) was 10. The “Fatigue Severit Scale” value ([5]; RLS Patient 3, scale 9 (minimum) to 63 (maximum), declined from 53) was 28, the “PET study in patients with ataxia” value ([6]; Becker-Bense et al. (2015)) was “increased metabolism in the midbrain and lower brainstem in responders” and the “Cerebellar ataxia, another case series” value ([6]; Pelz et al. (2015)) was “did not find benefit”. For the same compound, the Quantitative gait analysis ([6]; Schniepp et al. (2015)) was “improved temporal gait variability”, the “Cerebellar ataxia, case series” value ([6]; Strupp et al. (2013)) was “symptomatic improvement of cerebellar ataxia” and the Median lifespan ([7]; Sandhoff mice, 0.1 g/kg body weight since 3 weeks of age, untreated 112 days) was 120 days. The Lifespan ([7]; Sandhoff mouse, 0.1 g/kg from 3 weeks of age, p<0.05 vs untreated) was “statistically significant increase in the lifespan” and the “LysoTracker fluorescence relative to untreated disease fibroblasts” value [8] was “statistically significant reduction in LysoTracker fluorescence”.
